How the values were obtained:
Assay in all cases: PROLiFiler-Cell Panel Screening (CellTiterGlo)
Format in all cases: cell-based
A2058 = conditions: Homo sapiens; Skin, A2058, 72 hours
Procedure: (§1) For the assays, cells were seeded in white cell culture-treated flat and clear bottom 384-well multiwall plates and incubated at 37° C. overnight before the calix[4]arene of the formula (2) or the reference compound were added. After incubation for 72 hours at 37° C. at 5% or 10% CO2 depending on the medium, cell plates were equilibrated to room temperature (i.e. 20° C.) for one hour, CellTiterGlo® reagent from the firm Promega was added and luminescence was measured approximately an hour later using a luminometer.
(§2) Raw data were converted into percent cell viability relative to the high and low control, which were set to 100% and 0%, respectively.

A375 = conditions: Homo sapiens, A-375; Skin, A375, 72 hours
Procedure: as §1, §2

A498 = conditions: Homo sapiens; Kidney, A498, 72 hours
Procedure: as §1, §2

AsPC-1 = conditions: Homo sapiens, ASPC1; Pancreas, AsPC-1, 72 hours
Procedure: as §1, §2

COR-L279 = conditions: Homo sapiens; Lung, COR-L279, 72 hours
Procedure: as §1, §2

Caki-2 = conditions: Homo sapiens; Kidney, Caki-2, 72 hours
Procedure: as §1, §2

Colo 205 = conditions: Homo sapiens; Colon, Colo 205, 72 hours
Procedure: as §1, §2

DU-145 = conditions: Homo sapiens; Prostate, DU-145, 72 hours
Procedure: as §1, §2

DV90 = conditions: Homo sapiens, DV-90; Lung, DV90, 72 hours
Procedure: as §1, §2

EFM-192A = conditions: Breast, 72 hours
Procedure: as §1, §2

EPLC-272H = conditions: Homo sapiens, Lung, 72 hours
Procedure: as §1, §2

H4 = conditions: Brain, H4, 72 hours
Procedure: as §1, §2

HCC38 = conditions: Homo sapiens; Breast, HCC38, 72 hours
Procedure: as §1, §2

HCC827 = conditions: Homo sapiens; Lung, HCC827, 72 hours
Procedure: as §1, §2

HCT116 = conditions: Homo sapiens, HCT-116; Colon, HCT116, 72 hours
Procedure: as §1, §2

HL-60 = conditions: Homo sapiens; Blood, HL-60, 72 hours
Procedure: as §1, §2

HT-29 = conditions: Homo sapiens; Colon, HT-29, 72 hours
Procedure: as §1, §2

Hep3B2.1-7 = conditions: Liver, Hep3B2.1-7, 72 hours
Procedure: as §1, §2

KARPAS 299 = conditions: Homo sapiens; Blood, KARPAS 299, 72 hours
Procedure: as §1, §2

LOU-NH91 = conditions: Lung, LOU-NH91, 72 hours
Procedure: as §1, §2

MDA MB 435 = conditions: Homo sapiens; Skin, MDA MB 435, 72 hours
Procedure: as §1, §2

MKN-1 = conditions: Homo sapiens; Stomach, MKN-1, 72 hours
Procedure: as §1, §2

MV4-11 = conditions: Homo sapiens; Blood, MV4-11, 72 hours
Procedure: as §1, §2

NCI-H1563 = conditions: Homo sapiens; Lung, NCI-H1563, 72 hours
Procedure: as §1, §2

NCI-H1838 = conditions: Homo sapiens; Lung, NCI-H1838, 72 hours
Procedure: as §1, §2

SK-OV3 = conditions: Homo sapiens, SK-OV-3; Ovary, SK-OV3, 72 hours
Procedure: as §1, §2

SNU-1 = conditions: Homo sapiens, SNU1; Stomach, SNU-1, 72 hours
Procedure: as §1, §2

SNU840 = conditions: SNU-840; Ovary, SNU840, 72 hours
Procedure: as §1, §2

SW480 = conditions: Homo sapiens; Colon, SW480, 72 hours
Procedure: as §1, §2

SW620 = conditions: Homo sapiens, SW-620; Colon, SW620, 72 hours
Procedure: as §1, §2

SiHa = conditions: Homo sapiens, Cervix, 72 hours
Procedure: as §1, §2

T84 = conditions: Homo sapiens; Colon, T84, 72 hours
Procedure: as §1, §2

T98G = conditions: Homo sapiens, Brain, 72 hours
Procedure: as §1, §2

U118MG = conditions: Homo sapiens, U-118-MG, Brain, 72 hours
Procedure: as §1, §2

U251MG = conditions: Homo sapiens, U-251, Brain, 72 hours
Procedure: as §1, §2

U2OS = conditions: Homo sapiens, Bone, 72 hours
Procedure: as §1, §2

U87MG = conditions: Homo sapiens, U-87 MG, Brain, 72 hours
Procedure: as §1, §2

SMILES	IC50 (A2058) [nM]	IC50 (A375) [nM]	IC50 (A498) [nM]	IC50 (AsPC-1) [nM]	IC50 (COR-L279) [nM]	IC50 (Caki-2) [nM]	IC50 (Colo 205) [nM]	IC50 (DU-145) [nM]	IC50 (DV90) [nM]	IC50 (EFM-192A) [nM]	IC50 (EPLC-272H) [nM]	IC50 (H4) [nM]	IC50 (HCC38) [nM]	IC50 (HCC827) [nM]	IC50 (HCT116) [nM]	IC50 (HL-60) [nM]	IC50 (HT-29) [nM]	IC50 (Hep3B2.1-7) [nM]	IC50 (KARPAS 299) [nM]	IC50 (LOU-NH91) [nM]	further results
CCCOc1c2cccc1Cc1cccc(c1OCc1nccn1C)Cc1cccc(c1OCCC)Cc1cccc(c1OCc1nccn1C)C2 [(2)]	938	1170	1720	834	1510	2610	1810	1930	2160	5450	1470	2900	2530	1720	950	1450	1200	781	1480	652	IC50 (MDA MB 435): 2770 nM; IC50 (MKN-1): 2160 nM; IC50 (MV4-11): 671 nM; IC50 (NCI-H1563): 3440 nM; IC50 (NCI-H1838): 3480 nM; IC50 (SK-OV3): 1620 nM; IC50 (SNU-1): 2550 nM; IC50 (SNU840): 1150 nM; IC50 (SW480): 1520 nM; IC50 (SW620): 1760 nM; IC50 (SiHa): 1250 nM; IC50 (T84): 2440 nM; IC50 (T98G): 3110 nM; IC50 (U118MG): 2030 nM; IC50 (U251MG): 3530 nM; IC50 (U2OS): 1060 nM; IC50 (U87MG): 2460 nM
CC(C)C[C@H](NC(=O)[C@H](Cc1ccccc1)NC(=O)c1cnccn1)B(O)O [bortezomib, reference compound]	9.24	5.44	4.53	12.5	4.94	12.8	6.79	6.8	7.37	4.75	7.17	8.36	5.41	8.4	6.78	3.73	5.99	7.98	3.96	7.04	IC50 (MDA MB 435): 4.3 nM; IC50 (MKN-1): 4.32 nM; IC50 (MV4-11): 3.13 nM; IC50 (NCI-H1563): 19.5 nM; IC50 (NCI-H1838): 34.1 nM; IC50 (SK-OV3): 24 nM; IC50 (SNU-1): 28.8 nM; IC50 (SNU840): 5.89 nM; IC50 (SW480): 5.29 nM; IC50 (SW620): 4.74 nM; IC50 (SiHa): 7.41 nM; IC50 (T84): 12.1 nM; IC50 (T98G): 11.4 nM; IC50 (U118MG): 4.14 nM; IC50 (U251MG): 9.16 nM; IC50 (U2OS): 5.83 nM; IC50 (U87MG): 8.02 nM

— patent US20260015339A1, “CALIX[4]ARENES WITH HIGH ANTICANCER ACTIVITY” (UNIVERSITE GRENOBLE ALPES, priority 2023, published 2026)
